Columns and labels:
[1] = test system: bovine brain capillary endothelial cells; assay: Leptin transcytosis in blood-brain barrier in vitro model; assay type: cell-based; settings: for leptin transport / transcytosis: 10 ng/mL 125I-leptin + 50 μg/mL peptide
Protocol: Cells were incubated with ^125I-leptin alone (10,000 dpm/ng) (closed squares), with 1 μg/mL unlabelled leptin (triangles), 50 μg/mL MP (circles), 50 μg/mL HP (open squares), or 2 mg/mL lactoferrin (asterisks).
Human leptin transport through the blood-brain barrier (BBB) is studied using an in vitro model (Dehouck, et al J Neurochem 54:1798-801, 1990 hereby incorporated herein by reference in its entirety including any figures, tables, or drawings). This model closely mimics the in vivo situation with regard to the selective passage of nutrients and drugs through the cerebro-vascular endothelium. […] Briefly, this model consists of a co-culture of bovine brain capillary endothelial cells (ECs) and rat astrocytes (FIG. 31). The astrocytes are seeded on the plastic of a six-well dish and grown for 3 weeks. A collagen-coated filter is then set in each dish and bovine ECs are plated on the upper-side of the filter. ECs form a confluent monolayer in 5 days and they are used for experiments after 16 days of coculture with astrocytes.
Leptin transcytosis: Experiments were performed on brain capillary endothelial cells in coculture with astrocytes for 16 days. On the day of the experiment, ECs were transferred to a clean 6-well plate containing 2 mL of Ringer-Hepes buffer (see, FIG. 32). At time 0, 1 mL Ringer Hepes containing ^125I-leptin was placed in the upper compartment. After 30, 60, 120, or 180 min incubation at 37° C. on a rocking platform, the insert was transferred into another well of a six-well plate to minimize the possible passage of substances from the lower to the upper compartment. At the end of the experiment, the amount of radioactivity of each well was counted. […]
The transport of molecules through the endothelial monolayer was determined for each time point as % passage: % passage of radiolabelled molecule through the endothelium: dpm found in the lower compartment at a time point divided by the initial dpm found in the upper compartment: % transport at 30 min=(lower dpm t30/upper dpm)*100.

LSR = LSR activity (oleate-induced 125I-LDL binding, uptake, degradation) in PLC cells; assay type: cell-based, human; settings: for LSR activity in human cells: 22-mer peptide, increasing concentrations
Protocol: FIGS. 5A, 5B, 5C, and 5D show the stimulatory effect of leptin on LSR activity in PLC and suppression of this effect by 81B antibody. For FIGS. 5A, 5B, and 5C, cultured PLC cells were incubated at 37° C. for 30 min with increasing concentrations of human recombinant leptin in Buffer A. After this, 0.5 mM oleate and 20 μg/mL ^125I-LDL were added, and cells were further incubated at 37° C. for 2 h. Cells were washed, and the amount of oleate-induced ^125I-LDL bound (5A), internalized (5B) and degraded (5C) were measured. For FIG. 5D, PLC cells were incubated at room temperature for 30 min with 200 μg/mL anti-LSR peptide 81B or 170 antibody, followed by incubation at 37° C. for 30 min without (open bar) or with (hatched bar) 10 ng/mL human leptin. Oleate (0.5 mM) and ^125I-LDL (20 μg/mL) were added, and the monolayers were left at 37° C. for 3 h. After washing, the amount of ^125I-LDL binding was determined, and is shown here as the mean±SD of triplicate determinations.
FIGS. 8A and 8B show the effect of mouse or human leptin on LSR activity in primary cultures of rat hepatocytes or a human liver cell line (PLC). Primary cultured rat hepatocytes were obtained commercially (In Vitro Tech). The PLC cell line was obtained from ATCC repository and maintained in culture. Rat hepatocytes 72 h after plating (8A) or confluent monolayers of PLC (8B) were incubated 30 min at 37° C. with 0 (closed bar) or 10 ng/mL of human (open bar) or mouse (hatched bar) recombinant leptin. Following this, 0.5 mM oleate and 20 μg/mL ^125I-LDL were added and the cells were further incubated for 2 h at 37° C. […] The cells were washed, and the amount of oleate-induced ^125I-LDL bound and degraded was measured as described previously (Bihain, B. E., and Yen, F. T. (1992). Free fatty acids activate a high-affinity saturable pathway for degradation of low density lipoproteins infibroblasts from a subject homozygous for familial hypercholesterolemia. Biochemistry 31, 4628-4636.
FIGS. 35A and 35B show graphs of LSR activity and mRNA expression measured in PLC cells preincubated 24 h with leptin. In FIG. 35A, PLC monolayers were incubated 24 h at 37° C. with (o) or without (n) 200 ng/mL human recombinant leptin. After washing with PBS, cells were incubated 30 min at 37° C. with increasing concentrations of human leptin, followed by a 2 h incubation at 37° C. with 0.8 mM oleate and 20 μg/mL ^125I-LDL. Cells were washed, and the amount of oleate-induced ^125I-LDL binding was measured as described previously. Results are shown as the mean of triplicate determinations. In FIG. 35B, PLC monolayers were incubated 24 h at 37° C. with 0, 200, or 400 ng/mL human recombinant leptin. After washing with PBS, the cells were harvested. Total RNA was prepared from the cell pellets, and Northerns were performed to detect LSR mRNA, using GAPDH probe as loading control as described previously. Northern blots were scanned on the Phosphorimager (Molecular Dynamics, Sunnyvale, Calif.). Densitometric analysis of the images was performed using the software ImageQuant. Results are shown as the amount of LSR signal relative to that of GAPDH (mean±SD, n=3/condition). […]

Substance: CHLPWASGLETLDSLGGVLEAS (listed as Homo sapiens) [human peptide, human leptin fragment residues 117-138, 22-mer]
- leptin transport / transcytosis [1]: significant increase
- LSR activity in human cells (LSR; PLC cells): agonistic

Substance: leptin: plasma protein of 16 kDa produced by adipocytes; recombinant human or mouse leptin, species depends on the experiment
- reduction of the amount of 125I-leptin transported ([1]; 10 ng/mL 125I-leptin + 1 μg/mL cold leptin): approximately 30%
- leptin concentration at which the effect on LSR activity was observed (LSR; PLC cells, human recombinant leptin): ≥ 10 ng/mL
- oleate-induced LSR binding uptake and degradation of 125I-LDL (LSR; PLC cells, human recombinant leptin, 30 min preincubation, 0.5 mM oleate): directly increased
- leptin concentration needed for maximal stimulatory effect (LSR; PLC preincubated 24 h with 200 ng/mL leptin): 100 ng/mL
- reduction of the maximal stimulatory effect on oleate-induced 125I-LDL binding (LSR; PLC preincubated 24 h with 200 ng/mL leptin, then short incubation with leptin): about 50%

Substance: CSLPQTSGLQKPESLDGVLEAS (listed as Mus musculus) [mouse peptide, mouse leptin fragment residues 117-138, 22-mer]
- leptin transport / transcytosis [1]: no significant effect
- LSR activity in human cells (LSR; PLC cells): antagonist

Reference: patent publication US7470669B2, “Isolated polypeptide comprising a leptin fragment” (Serono Genetics Institute, S.A., priority 1999, dated 2008)
